This note sets out measurements from patent publication US20250034153A1, “TRIAZOLOPYRIMIDINES AS A2A / A2B INHIBITORS” (Incyte Corporation, priority 2019, published 2025).

One assay concerns the target Adenosine A2A (Homo sapiens (Human), UniProt P29274). The experiment in a line: A2A Tag-lite HTRF assay (Example C). As to conditions: Tag-lite Adenosine A2A labeled cells, Red antagonist fluorescent ligand 12.5 nM, one-site competitive binding; read-out: A2A_Ki. The method, then:
Example C. A2A Tag-Lite® HTRF Assay
Assays were conducted in black low volume 384-well polystyrene plates (Greiner 784076-25) in a final volume of 10 μL. Test compounds were first serially diluted in DMSO and 100 nl added to the plate wells before the addition of other reaction components. The final concentration of DMSO was 1%. Tag-lite® Adenosine A2A labeled cells (CisBio C1TT1A2A) were diluted 1:5 into Tag-lite buffer (CisBio LABMED) and spun 1200 g for 5 mins. The pellet was resuspended at a volume 10.4× the initial cell suspension volume in Tag-lite buffer, and Adenosine A2A Receptor Red antagonist fluorescent ligand (CisBio L0058RED) added at 12.5 nM final concentration. 10 ul of the cell and ligand mix was added to the assay wells and incubated at room temperature for 45 minutes before reading on a PHERAstar FS plate reader (BMG Labtech) with HTRF 337/620/665 optical module. Percent binding of the fluorescent ligand was calculated; where 100 nM of A2A antagonist control ZM 241385 (Tocris 1036) displaces the ligand 100% and 1% DMSO has 0% displacement. The % binding data versus the log of the inhibitor concentration was fitted to a one-site competitive binding model (GraphPad Prism version 7.02) where the ligand constant=12.5 nM and the ligand Kd=1.85 nM.

Assay [1] addresses human adenosine A2B receptor (Homo sapiens (Human), UniProt P29275). The experiment in a line: Adenosine A2B receptor cyclic AMP GS assay (Example B). The format is cell-based. Particulars: HEK-293 cells expressing human A2B, agonist NECA 12 nM, cAMP accumulation (FRET); read-out: A2B_cAMP_EC50. As to the method:
Example B. Adenosine A2B Receptor Cyclic AMP GS Assay
Stably transfected HEK-293 cells expressing the human adenosine A2B receptor (Perkin Elmer) were maintained in MEM culture medium with 10% FBS and 100 μg/ml Geneticin (Life Technologies). 18 to 24 hours prior to assay, geneticin was removed from culture. The cisbio cAMP-GS Dynamic kit utilizing the FRET (Fluorescence Resonance Energy Transfer) technology was used to measure cAMP accumulation in the cells. Compounds of the present disclosure at an appropriate concentration were mixed with 10000 cells/well in white 96 well half area plates (Perkin Elmer) for 30 min at RT gently shaking. Agonist, NECA (R&D Technologies) at 12 nM was added to each well for 60 min at RT gently shaking. Detection reagents, d2-labeled cAMP (acceptor) and anti-cAMP cryptate (donor) were added to each well for 60 min at RT gently shaking. Plates were read on Pherastar (BMG Labtech), fluorescence ratio 665/620 was calculated and EC50 determination was performed by fitting the curve of percent of control versus the log of the compound concentration using GraphPad Prism.
(In general: cAMP levels reflect the balance of adenylyl cyclase and phosphodiesterase activity.)

Chain of human adenosine A2B receptor (P29275 whole entry): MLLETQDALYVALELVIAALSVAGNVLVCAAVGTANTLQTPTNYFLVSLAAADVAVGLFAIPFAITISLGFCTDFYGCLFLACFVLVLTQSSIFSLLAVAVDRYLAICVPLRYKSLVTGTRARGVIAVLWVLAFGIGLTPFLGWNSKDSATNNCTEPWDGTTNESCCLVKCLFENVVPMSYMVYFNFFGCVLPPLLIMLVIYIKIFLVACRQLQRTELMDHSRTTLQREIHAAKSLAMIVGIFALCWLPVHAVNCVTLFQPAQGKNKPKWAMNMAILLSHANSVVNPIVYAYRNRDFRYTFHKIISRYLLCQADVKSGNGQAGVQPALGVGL
Chain of Adenosine A2A (P29274 whole entry): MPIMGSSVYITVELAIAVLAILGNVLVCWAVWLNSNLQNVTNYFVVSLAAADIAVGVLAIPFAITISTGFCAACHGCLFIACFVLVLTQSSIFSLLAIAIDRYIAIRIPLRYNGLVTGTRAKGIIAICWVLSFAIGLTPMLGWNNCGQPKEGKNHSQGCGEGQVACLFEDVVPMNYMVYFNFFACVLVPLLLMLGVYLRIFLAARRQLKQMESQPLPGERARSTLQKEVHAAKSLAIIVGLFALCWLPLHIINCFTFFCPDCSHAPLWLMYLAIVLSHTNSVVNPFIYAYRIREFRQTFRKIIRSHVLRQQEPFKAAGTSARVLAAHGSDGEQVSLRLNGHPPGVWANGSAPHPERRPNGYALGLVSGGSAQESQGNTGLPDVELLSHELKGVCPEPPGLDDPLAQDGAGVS

On to `N#Cc1cccc(-c2nc(N)n3nc(Cn4nnc(-c5ccccn5)n4)nc3c2-c2ccncn2)c1` [Example 50, 3-(5-amino-2-((5-(pyridin-2-yl)-2H-tetrazol-2-yl)methyl)-8-(pyrimidin-4-yl)-[1,2,4]triazolo[1,5-c]pyrimidin-7-yl)benzonitrile], for which, at Adenosine A2A, the Ki was no more than 10 nM. Further, in assay [1], the EC50 was no more than 10 nM.

As to `N#Cc1cccc(-c2nc(N)n3nc(Cn4nnnc4-c4ncccn4)nc3c2-c2ccncn2)c1` [Example 51, 3-(5-amino-2-((5-(pyrimidin-2-yl)-1H-tetrazol-1-yl)methyl)-8-(pyrimidin-4-yl)-[1,2,4]triazolo[1,5-c]pyrimidin-7-yl)benzonitrile], the Ki at Adenosine A2A is no more than 10 nM. The EC50 in assay [1] was no more than 10 nM.

Take `N#Cc1cccc(-c2nc(N)n3nc(Cn4nnnc4-c4ccncn4)nc3c2-c2ccncn2)c1` [Example 52, 3-(5-amino-8-(pyrimidin-4-yl)-2-((5-(pyrimidin-4-yl)-1H-tetrazol-1-yl)methyl)-[1,2,4]triazolo[1,5-c]pyrimidin-7-yl)benzonitrile]: at Adenosine A2A, the Ki was no more than 10 nM. In assay [1], the EC50 is no more than 10 nM.

On to `N#Cc1cccc(-c2nc(N)n3nc(Cn4nnnc4-c4cccnc4)nc3c2-c2ccncn2)c1` [Example 53, 3-(5-amino-2-((5-(pyridin-3-yl)-1H-tetrazol-1-yl)methyl)-8-(pyrimidin-4-yl)-[1,2,4]triazolo[1,5-c]pyrimidin-7-yl)benzonitrile], for which, at Adenosine A2A, the Ki is no more than 10 nM. For the same molecule, the EC50 in assay [1] is no more than 10 nM.

Take `N#Cc1cccc(-c2nc(N)n3nc(Cn4nnnc4-c4ccncc4)nc3c2-c2ccncn2)c1` [Example 54, 3-(5-amino-2-((5-(pyridin-4-yl)-1H-tetrazol-1-yl)methyl)-8-(pyrimidin-4-yl)-[1,2,4]triazolo[1,5-c]pyrimidin-7-yl)benzonitrile]: at Adenosine A2A, the Ki is no more than 10 nM. Besides, the EC50 in assay [1] was no more than 10 nM.

As to `Cc1cccc(COc2nc3c(-c4ccc(=O)n(C)c4)c(-c4cccc(C#N)c4)nc(N)n3n2)n1` [Example 55, 3-(5-amino-8-(1-methyl-6-oxo-1,6-dihydropyridin-3-yl)-2-((6-methylpyridin-2-yl)methoxy)-[1,2,4]triazolo[1,5-c]pyrimidin-7-yl)benzonitrile], the Ki at Adenosine A2A was no more than 10 nM. In assay [1], the EC50 fell in the range of 10 to 100 nM.

For `Cc1cccc(COc2nc3c(-c4ccncc4C)c(-c4cccc(C#N)c4)nc(N)n3n2)n1` [Example 57, 3-(5-amino-2-((6-methylpyridin-2-yl)methoxy)-8-(3-methylpyridin-4-yl)-[1,2,4]triazolo[1,5-c]pyrimidin-7-yl)benzonitrile], the Ki at Adenosine A2A was no more than 10 nM. The EC50 in assay [1] is 10 to 100 nM.

Regarding `Cc1cc(-c2c(-c3cccc(C#N)c3)nc(N)n3nc(OCc4cccc(C)n4)nc23)cc(C)n1` [Example 58, 3-(5-amino-8-(2,6-dimethylpyridin-4-yl)-2-((6-methylpyridin-2-yl)methoxy)-[1,2,4]triazolo[1,5-c]pyrimidin-7-yl)benzonitrile], the Ki on Adenosine A2A was no more than 10 nM. The EC50 in assay [1] is 100 to 1000 nM.

Regarding `COc1cc(-c2c(-c3cccc(C#N)c3)nc(N)n3nc(OCc4cccc(C)n4)nc23)cc(C)n1` [Example 59, 3-(5-amino-8-(2-methoxy-6-methylpyridin-4-yl)-2-((6-methylpyridin-2-yl)methoxy)-[1,2,4]triazolo[1,5-c]pyrimidin-7-yl)benzonitrile], the Ki on Adenosine A2A was no more than 10 nM. Moreover, the EC50 in assay [1] was in the range of 10 to 100 nM.

For the molecule `Cc1cccc(CNc2nc3c(-c4ccncn4)c(-c4cccc(C#N)c4)nc(N)n3n2)n1` [Example 65, 3-(5-amino-2-(((6-methylpyridin-2-yl)methyl)amino)-8-(pyrimidin-4-yl)-[1,2,4]triazolo[1,5-c]pyrimidin-7-yl)benzonitrile], the Ki at Adenosine A2A was no more than 10 nM. Also, the EC50 in assay [1] fell in the range of 10 to 100 nM.
